The results in this text go back to patent US20260317306A1, “HETEROARYL DERIVATIVE COMPOUND AND USE THEREOF” (S2CBIO INC., priority 2022, published 2026).

A value given as a limit tells only on which side of the number the result lay.

The assay addresses T1, human ANO6 (variant 5) (Homo sapiens, UniProt Q4KMQ2).
T1 construct: expressing human ANO6 (variant 5; NP_001191732.1); expressed in transfected cells; host or cells: Fischer rat thyroid (FRT) cells
T1 sequence (Q4KMQ2 1-931 isoform Q4KMQ2-2): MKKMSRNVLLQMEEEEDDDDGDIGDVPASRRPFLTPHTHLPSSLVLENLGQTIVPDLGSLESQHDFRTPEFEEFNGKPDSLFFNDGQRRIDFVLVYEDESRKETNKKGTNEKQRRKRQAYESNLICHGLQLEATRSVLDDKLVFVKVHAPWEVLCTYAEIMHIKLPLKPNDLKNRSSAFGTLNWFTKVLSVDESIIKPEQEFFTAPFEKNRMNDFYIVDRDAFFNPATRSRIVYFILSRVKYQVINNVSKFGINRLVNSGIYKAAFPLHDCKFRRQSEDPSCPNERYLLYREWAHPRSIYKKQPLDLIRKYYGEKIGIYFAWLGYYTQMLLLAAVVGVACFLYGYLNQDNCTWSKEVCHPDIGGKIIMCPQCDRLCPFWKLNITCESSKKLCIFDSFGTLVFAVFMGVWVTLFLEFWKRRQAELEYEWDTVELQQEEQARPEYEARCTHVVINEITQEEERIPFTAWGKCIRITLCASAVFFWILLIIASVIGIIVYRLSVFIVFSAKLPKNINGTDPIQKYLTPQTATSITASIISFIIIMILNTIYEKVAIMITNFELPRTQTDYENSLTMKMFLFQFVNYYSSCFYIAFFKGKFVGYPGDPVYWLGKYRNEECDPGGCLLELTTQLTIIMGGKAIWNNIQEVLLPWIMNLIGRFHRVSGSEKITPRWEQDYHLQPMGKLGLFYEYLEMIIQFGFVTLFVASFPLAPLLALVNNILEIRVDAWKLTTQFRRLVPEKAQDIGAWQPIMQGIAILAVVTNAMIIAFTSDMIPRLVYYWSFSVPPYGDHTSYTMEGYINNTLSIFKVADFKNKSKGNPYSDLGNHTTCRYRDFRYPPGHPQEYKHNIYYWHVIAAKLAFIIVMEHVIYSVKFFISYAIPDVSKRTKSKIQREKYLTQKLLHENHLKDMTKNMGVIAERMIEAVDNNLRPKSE
Put plainly: Lact C2 Assay (Measuring Phosphatidylserine Externalization Scramblase Function), ionomycin-treated Fischer rat thyroid (FRT) cells expressing human ANO6 (variant 5); compounds at 50 nM, 100 nM and 1 μM. In kind it is cell-based. The note with it: 10 μM ionomycin, average of three tests, read-out: % Inhibition (phosphatidylserine externalization inhibitory activity); for inhibition at 0.05 µM: compound at 50 nM; for inhibition at 0.1 µM: compound at 100 nM. On the procedure: Ionomycin (Alomonelab, cat. #I-700), DAPI (Sigma-Aldrich, cat. #D8417), paraformaldehyde (Biosesang, cat. #P2031), Lionheart FX automated fluorescence microscope (BioTek), Gen5™ software program (BioTek), and Image J analysis software program.
Fisher rat thyroid (FRT) cells expressing human ANO6 (variant 5; GenBank accession no. NP_001191732.1) were cultured at 37° C. under 5% Co2 conditions in DMEM/Ham's F-12 (1:1) medium supplemented with 10% Fetal Bovine Serum, 2 mM […], 100 units/mL penicillin, and 100 μg/mL streptomycin.
Fischer Rat Thyroid (FRT) cells (2×10^4 cells/well) expressing human ANO6 (variant 5) were cultured in a 96-well microplate for 24 hours. After the incubation, the cells were treated with compounds dissolved in DMSO to 1% v/v in each well at each concentration (50 nM, 100 nM, and 1 μM) and reacted for 10 minutes. Thereafter, each well was treated with ionomycin to a final concentration of 10 μM, allowed to react for 10 minutes, and then washed with 200 μL PBS. After washing, each well was treated with 50 μL of Lactadherin-C2 (Lact-C2)-GFP mixed in DMEM medium to a final concentration of 500 nM to stain phosphatidylserine, and cultured at 37° C. for 10 minutes. After completion of the reaction, the cells were washed with 200 μL PBS, and fixed with 4% paraformaldehyde for 5 minutes at room temperature. For morphological analysis, DAPI solution was added, and the cells were incubated for 15 minutes, followed by washing with PBS. The fluorescence intensity of Lact-C2-GFP bound to phosphatidylserine on the cell surface was measured using an automated fluorescence microscope. For quantitative analysis of the fluorescence intensity of Lact-C2-GFP, BioTek Gen5™ software and Image J analysis software programs were used.
Phosphatidylserine externalization inhibitory activity (%) by the compound was calculated through the following analysis method. Specifically, the background fluorescence value was subtracted from the measured Lact-C2-GFP fluorescence value, and the fluorescence value of the ionomycin non-treatment group and the ionomycin-treatment group in the same row where each test group was located in a 96-well microplate were calculated. In order to calculate the inhibitory activity (%) by the compound, the relative inhibitory activity was calculated by setting the compound and ionomycin non-treatment group to 100% inhibitory activity and the ionomycin alone treatment group to 0% inhibitory activity. To derive the results, the test was repeated three times, and the average values of the results were classified according to the range below and shown in Table 4 below (A: >60% inhibition, B: 30 to 60% inhibition, N/A: no test).

Regarding `Fc1ccc2nc(-c3cccc(Nc4ccc(-c5cccnn5)cn4)c3)[nH]c2c1` [Example 55], the inhibition – broadly, the relative decrease from the control value, in per cent – at 0.05 µM was over 60% and the inhibition at 0.1 µM was over 60%.
Take `c1cc(Nc2ncc(-c3ccncn3)cn2)cc(-c2nc3ccccc3[nH]2)c1` [Example 76, N-[3-(1H-benzo[d]imidazol-2-yl)phenyl]-[4,5′-bipyrimidin]-2′-amine]: the inhibition at 0.05 µM lay in the range of 30 to 60% and the inhibition at 0.1 µM is over 60%.
